Reference: BindingDB's records for doi:10.1021/bi051886s (Johnson & Johnson Pharmaceutical, 2006)

Assays:
Assay in all cases: Protease Inhibition Assay
[1] = target: T1, Dimer of Gag-Pol polyprotein [490-588,L523I,E525D,M526I,I544V,L553H,H559K,L579M] (Human immunodeficiency virus 1, UniProt P05959, E525D/H559K/I544V/L523I/L553H/L579M/M526I)
T1 construct: 490-588

[2] = target: T2, Dimer of Gag-Pol polyprotein [482-580,I502K,I528M,T553A] (Human immunodeficiency virus 1, UniProt P24740, I502K/I528M/T553A); conditions: pH 4.7; 37 °C
T2 construct: 482-580

[3] = target: T3, Dimer of Gag-Pol polyprotein [490-588,L523I,E525D,M526I,I544V,L553H,H559K,V572F,L579M] (Human immunodeficiency virus 1, UniProt P05959, E525D/H559K/I544V/L523I/L553H/L579M/M526I/V572F)
T3 construct: 490-588

[4] = target: T4, Dimer of Gag-Pol polyprotein [482-580,I502K,I528M,T553A,V564F] (Human immunodeficiency virus 1, UniProt P24740, I502K/I528M/T553A/V564F)
T4 construct: 482-580

[5] = target: T5, Dimer of Gag-Pol polyprotein [501-599] (Human immunodeficiency virus 1, UniProt P03367); conditions: pH 4.7; 37 °C
T5 construct: 501-599

[6] = target: T6, Dimer of Gag-Pol polyprotein [501-599,V583F] (Human immunodeficiency virus 1, UniProt P03367, V583F); conditions: pH 4.7; 37 °C
T6 construct: 501-599

SMILES: CC(C)(C)NC(=O)[C@@H]1C[C@@H]2CCCC[C@@H]2CN1C[C@@H](O)[C@H](Cc1ccccc1)NC(=O)[C@H](CC(N)=O)NC(=O)c1ccc2ccccc2n1 [SQV]
- Ki [1]: 48 nM
- Ki [2]: 1.8 nM
- Ki [3]: 24 nM
- Ki [4]: 0.43 nM

SMILES: CC(C)CN(C[C@@H](O)[C@H](Cc1ccccc1)NC(=O)O[C@H]1CCOC1)S(=O)(=O)c1ccc(N)cc1 [VX-478]
- Ki [1]: 1.4 nM
- Ki [2]: 0.4 nM
- Ki [3]: 23 nM
- Ki [4]: 1.2 nM

SMILES: Cc1c(O)cccc1C(=O)N[C@@H](CSc1ccccc1)[C@H](O)CN1C[C@H]2CCCC[C@H]2C[C@H]1C(=O)NC(C)(C)C [Viracept]
- Ki [1]: 17 nM
- Ki [3]: 146 nM

SMILES: Cc1cccc(C)c1OCC(=O)N[C@@H](Cc1ccccc1)[C@@H](O)C[C@H](Cc1ccccc1)NC(=O)[C@H](C(C)C)N1CCCNC1=O [(2S)-N-[(2S,4S,5S)-5-[2-(2,6-dimethylphenoxy)acetamido]-4-hydroxy-1,6-diphenylhexan-2-yl]-3-methyl-2-(2-oxo-1,3-diazinan-1-yl)butanamide]
- Ki [1]: 0.5 nM
- Ki [5]: 0.05 nM
- Ki [2]: 0.019 nM
- Ki [3]: 9 nM
- Ki [6]: 0.2 nM
- Ki [4]: 0.48 nM

SMILES: COC(=O)N[C@H](C(=O)N[C@@H](Cc1ccccc1)[C@@H](O)CN(Cc1ccc(-c2ccccn2)cc1)NC(=O)[C@@H](NC(=O)OC)C(C)(C)C)C(C)(C)C [CGP 73547]
- Ki [1]: 1.1 nM
- Ki [2]: 0.24 nM
- Ki [3]: 0.7 nM
- Ki [6]: 0.56 nM
- Ki [4]: 0.57 nM

SMILES: CC(C)(C)NC(=O)[C@@H]1CN(Cc2cccnc2)CCN1C[C@@H](O)C[C@@H](Cc1ccccc1)C(=O)N[C@H]1c2ccccc2C[C@H]1O [Crixivan]
- Ki [1]: 42 nM
- Ki [2]: 6.9 nM
- Ki [3]: 1620 nM
- Ki [4]: 108 nM
